For 25 compounds, IC50 results are on record in patent US20230271954A1 (Gossamer Bio Services, Inc., priority 2020, published 2023).

One assay has as its target DGKα (Homo sapiens, UniProt P23743). Briefly: DGKα biochemical assay (ADP-Glo). Conditions: read-out: DGK α IC50. In short, it runs like this: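 ADP-Glo kinase assay using OAG/PS (1:2) lipid substrate, sonicated, in HEPES pH 7.0 buffer with MgCl2, CaCl2, DTT, BSA, Triton X-100. Enzyme preincubated with compound 30 min at RT; substrate with ATP (DGKα: 400 μM) added, 45 min RT. Luminescence read; % inhibition vs DMSO and no-enzyme controls.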

The target in a further assay is T1, DGKζ (Homo sapiens, UniProt Q13574).
T1 construct: purchased Carna 12-110
Briefly: DGKζ biochemical assay (ADP-Glo). Conditions: read-out: DGK ζ IC50.

DGKα, sequence (P23743 whole entry): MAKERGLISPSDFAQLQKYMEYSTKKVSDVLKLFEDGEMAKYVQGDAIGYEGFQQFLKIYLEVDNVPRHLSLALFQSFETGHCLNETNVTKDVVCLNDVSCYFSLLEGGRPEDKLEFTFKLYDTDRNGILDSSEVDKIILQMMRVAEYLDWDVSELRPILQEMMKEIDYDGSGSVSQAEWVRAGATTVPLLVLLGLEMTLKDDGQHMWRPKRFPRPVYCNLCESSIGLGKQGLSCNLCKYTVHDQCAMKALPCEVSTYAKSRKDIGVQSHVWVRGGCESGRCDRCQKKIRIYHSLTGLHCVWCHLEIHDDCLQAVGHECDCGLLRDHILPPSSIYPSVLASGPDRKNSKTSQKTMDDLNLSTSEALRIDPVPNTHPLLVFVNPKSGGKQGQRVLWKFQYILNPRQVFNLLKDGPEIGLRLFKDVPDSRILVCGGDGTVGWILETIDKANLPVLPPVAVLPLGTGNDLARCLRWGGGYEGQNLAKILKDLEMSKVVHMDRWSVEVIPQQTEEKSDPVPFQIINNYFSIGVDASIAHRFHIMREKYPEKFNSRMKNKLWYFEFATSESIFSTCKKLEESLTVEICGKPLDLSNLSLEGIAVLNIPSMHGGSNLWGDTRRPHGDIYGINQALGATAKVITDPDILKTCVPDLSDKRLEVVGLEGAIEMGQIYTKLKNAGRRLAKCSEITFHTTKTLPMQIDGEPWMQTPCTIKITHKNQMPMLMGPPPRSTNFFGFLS
T1 sequence (Q13574 1-929 isoform Q13574-4): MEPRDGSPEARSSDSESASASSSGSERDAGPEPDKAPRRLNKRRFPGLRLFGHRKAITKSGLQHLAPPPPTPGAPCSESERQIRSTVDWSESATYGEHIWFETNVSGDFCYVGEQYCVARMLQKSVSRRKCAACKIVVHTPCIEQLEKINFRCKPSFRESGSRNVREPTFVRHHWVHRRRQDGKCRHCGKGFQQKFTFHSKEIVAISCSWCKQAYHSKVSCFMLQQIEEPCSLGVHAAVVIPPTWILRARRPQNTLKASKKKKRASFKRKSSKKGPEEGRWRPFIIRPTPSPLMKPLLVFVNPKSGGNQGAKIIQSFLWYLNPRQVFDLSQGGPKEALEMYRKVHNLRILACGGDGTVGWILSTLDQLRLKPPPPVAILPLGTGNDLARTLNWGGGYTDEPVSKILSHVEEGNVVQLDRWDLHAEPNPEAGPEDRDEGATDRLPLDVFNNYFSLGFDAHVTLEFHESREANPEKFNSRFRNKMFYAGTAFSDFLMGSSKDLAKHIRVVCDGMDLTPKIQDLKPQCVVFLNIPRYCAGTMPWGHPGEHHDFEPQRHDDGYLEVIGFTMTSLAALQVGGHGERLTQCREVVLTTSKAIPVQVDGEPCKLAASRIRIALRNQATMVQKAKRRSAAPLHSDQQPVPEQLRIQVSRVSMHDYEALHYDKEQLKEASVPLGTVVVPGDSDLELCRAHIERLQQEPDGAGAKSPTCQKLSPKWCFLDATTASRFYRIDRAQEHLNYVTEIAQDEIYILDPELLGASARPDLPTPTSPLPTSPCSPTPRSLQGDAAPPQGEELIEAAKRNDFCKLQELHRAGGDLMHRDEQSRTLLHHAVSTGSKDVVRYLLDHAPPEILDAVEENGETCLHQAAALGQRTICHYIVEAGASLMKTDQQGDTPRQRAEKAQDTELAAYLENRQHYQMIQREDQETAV

In the case of `Cc1cc(F)cc(N(CC2CCC2)[C@H]2CC[C@@H](N(C)c3c(C#N)c(=O)n(C)c4ccc(C#N)nc34)CC2)c1` [Example 113, cis-8-((-4-((cyclobutylmethyl)(3-fluoro-5-methylphenyl)amino)cyclohexyl)(methyl)amino)-5-methyl-6-oxo-5,6-dihydro-1,5-naphthyridine-2,7-dicarbonitrile], the IC50 on DGKα and on DGKζ was 10 to 100 nM each time.
Take `Cc1c(F)cccc1N(CC1CC1)[C@H]1CC[C@H](N(C)c2c(C#N)c(=O)n(C)c3ccc(Cl)nc23)CC1` [Example 105, trans-6-chloro-4-((4-((cyclopropylmethyl)(3-fluoro-2-methylphenyl)amino)cyclohexyl)(methyl)amino)-1-methyl-2-oxo-1,2-dihydro-1,5-naphthyridine-3-carbonitrile]: the concentration for half-maximal inhibition (IC50) on DGKα was ≥ 1000 nM; at DGKζ, 100 to 1000 nM.
Take `Cn1c(=O)c(C#N)c(N(C)[C@H]2CC[C@@H](N(c3ccc(F)cc3)C3CCC3)CC2)c2nc(C#N)ccc21` [Example 16]: the IC50 is < 10 nM at DGKα and 100 to 1000 nM at DGKζ.
In the same order, the values of `COc1cc(N(CC2CC2)[C@H]2CC[C@@H](N(C)c3cc(=O)n(C)c4ccc(C#N)nc34)CC2)ccc1F` [Example 38, cis-8-((4-((cyclopropylmethyl)(4-fluoro-3-methoxyphenyl)amino)cyclohexyl)(methyl)amino)-5-methyl-6-oxo-5,6-dihydro-1,5-naphthyridine-2-carbonitrile] are 100 to 1000 nM and 100 to 1000 nM.
In the same order, the values of `Cn1c(=O)c(C#N)c(N(C)[C@H]2CC[C@@H](N(CC3CC3)c3ccc4c(c3)COC4)CC2)c2nc(C#N)ccc21` [Example 193, cis-8-((4-((cyclopropylmethyl)(1,3-dihydroisobenzofuran-5-yl)amino)cyclohexyl) (methyl)amino)-5-methyl-6-oxo-5,6-dihydro-1,5-naphthyridine-2,7-dicarbonitrile] are ≥ 1000 nM and ≥ 1000 nM.
In the same order, the values of `Cn1c(=O)cc(N(C)[C@H]2CC[C@@H](N(Cc3ccccc3)CC3CC3)CC2)c2nc(C#N)ccc21` [Example 214, cis-8-((-4-(benzyl(cyclopropylmethyl)amino)cyclohexyl)(methyl)amino)-5-methyl-6-oxo-5,6-dihydro-1,5-naphthyridine-2-carbonitrile] are ≥ 1000 nM and ≥ 1000 nM.
Consider `CN(c1c(C#N)c(=O)n(C)c2ccc(Cl)nc12)C1CCC(N(CC2CCC2)c2ccc(CN3CCOCC3)cc2)CC1` (single isomer, unassigned) [Example 191, (cis or trans)-6-chloro-4-((4-((cyclobutylmethyl)(4-(morpholinomethyl)phenyl)amino)cyclohexyl) (methyl)amino)-1-methyl-2-oxo-1,2-dihydro-1,5-naphthyridine-3-carbonitrile], for which the IC50 on DGKα was 10 to 100 nM; on DGKζ it was ≥ 1000 nM.
In the same order, the values of `Cn1c(=O)c(C#N)c(N(C)[C@H]2CC[C@@H](N(CC3CCOC3)c3ccc(F)cc3)CC2)c2nc(C#N)ccc21` (relative stereo) [Example 55, cis-8-((4-((4-fluorophenyl)((tetrahydrofuran-3-yl)methyl)amino)cyclohexyl)(methyl)amino)-5-methyl-6-oxo-5,6-dihydro-1,5-naphthyridine-2,7-dicarbonitrile] are < 10 nM and 10 to 100 nM.
In the same order, the values of `Cc1cc(F)ccc1N(CC1CC(F)(F)C1)[C@H]1CC[C@H](N(C)c2c(C#N)c(=O)n(C)c3ccc(C#N)nc23)CC1` [Example 178, trans-8-((-4-(((3,3-difluorocyclobutyl)methyl)(4-fluoro-2-methylphenyl)amino)cyclohexyl)(methyl)amino)-5-methyl-6-oxo-5,6-dihydro-1,5-naphthyridine-2,7-dicarbonitrile] are 100 to 1000 nM and 100 to 1000 nM.
Taken in the same sequence, the figures for `Cn1c(=O)cc(N(C)[C@H]2CC[C@H](N(CC3CC3)c3ccc(F)cn3)CC2)c2nc(C#N)ccc21` [Example 3AA] were 100 to 1000 nM and ≥ 1000 nM.
Take `COc1cc(F)ccc1N(C1CCC1)[C@H]1CC[C@@H](N(C)c2c(C#N)c(=O)n(C)c3ccc(C#N)nc23)CC1` [Example 18, cis-8-((4-(cyclobutyl(4-fluoro-2-methoxyphenyl)amino)cyclohexyl)(methyl)amino)-5-methyl-6-oxo-5,6-dihydro-1,5-naphthyridine-2,7-dicarbonitrile]: the 50% inhibitory concentration (IC50) on DGKα and at DGKζ was 100 to 1000 nM in each case.
On to `Cn1c(=O)c(C#N)c(N(C)[C@H]2CC[C@H](N(CC3CCC3)c3ccc(F)cc3C(F)F)CC2)c2nc(C#N)ccc21` [Example 179, trans-8-((-4-((cyclobutylmethyl)(2-(difluoromethyl)-4-fluorophenyl)amino)cyclohexyl)(methyl)amino)-5-methyl-6-oxo-5,6-dihydro-1,5-naphthyridine-2,7-dicarbonitrile], for which the IC50 on DGKα was 10 to 100 nM; at DGKζ it was ≥ 1000 nM.
Taken in the same sequence, the figures for `Cc1cc(N(CC2CCC2)[C@H]2CC[C@@H](N(C)c3c(C#N)c(=O)n(C)c4ccc(C#N)nc34)CC2)ccc1F` [Example 91] were < 10 nM and 10 to 100 nM.
As to `Cn1c(=O)c(F)c(N(C)[C@H]2CC[C@@H](N(CC3COCCO3)c3ccc(F)cc3)CC2)c2nc(C#N)ccc21` (stereo partly drawn) [Example 203, cis-8-((-4-(((1,4-dioxan-2-yl)methyl)(4-fluorophenyl)amino)cyclohexyl)(methyl)amino)-7-fluoro-5-methyl-6-oxo-5,6-dihydro-1,5-naphthyridine-2-carbonitrile], the IC50 was < 10 nM on DGKα and 100 to 1000 nM at DGKζ.
In the same order, the values of `COc1cccc(N(CC2CC2)[C@H]2CC[C@H](N(C)c3cc(=O)n(C)c4ccc(C#N)nc34)CC2)c1` [Example 14, trans-8-((4-((cyclopropylmethyl)(3-methoxyphenyl)amino)cyclohexyl)(methyl)amino)-5-methyl-6-oxo-5,6-dihydro-1,5-naphthyridine-2-carbonitrile] are ≥ 1000 nM and ≥ 1000 nM.
In the same order, the values of `Cn1c(=O)c(C#N)c(N(C)[C@H]2CC[C@@H](N(CC3CCC3)c3ccc4c(c3)OCO4)CC2)c2nc(C#N)ccc21` [Example 97] are < 10 nM and 10 to 100 nM.
In the same order, the values of `Cn1c(=O)c(C#N)c(N(C)[C@H]2CC[C@@H](N(C(=O)C3CC3)c3ccc(F)cc3)CC2)c2nc(C#N)ccc21` [Example 206, cis-N-(4-((3,6-dicyano-1-methyl-2-oxo-1,2-dihydro-1,5-naphthyridin-4-yl)(methyl)amino)cyclohexyl)-N-(4-fluorophenyl)cyclopropanecarboxamide] are 10 to 100 nM and ≥ 1000 nM.
Consider `COc1cc(N(C2CC2)[C@H]2CC[C@H](N(C)c3cc(=O)n(C)c4ccc(C#N)nc34)CC2)ccc1F` [Example 93], for which the IC50 on DGKα was 100 to 1000 nM; at DGKζ, ≥ 1000 nM.
Taken in the same sequence, the figures for `Cn1c(=O)c(C#N)c(N(C)[C@H]2CC[C@@H](N(CC3CC3)c3ccc(Cl)cc3)CC2)c2nc(C#N)ccc21` [Example 35, cis-8-((4-((4-chlorophenyl)(cyclopropylmethyl)amino)cyclohexyl)(methyl)amino)-5-methyl-6-oxo-5,6-dihydro-1,5-naphthyridine-2,7-dicarbonitrile] were < 10 nM and ≥ 1000 nM.
As for `Cn1c(=O)c(C#N)c(N(C)[C@H]2CC[C@H](N(CC3CC3)c3ccc4c(c3)OCO4)CC2)c2nc(C#N)ccc21` [Example 79], the IC50 was ≥ 1000 nM at DGKα and 100 to 1000 nM at DGKζ.
Taken in the same sequence, the figures for `Cc1cc(N(CC2CC2)[C@H]2CC[C@H](N(C)c3c(C#N)c(=O)n(C)c4ccc(C#N)nc34)CC2)ccc1F` [Example 125, trans-8-((4-((cyclopropylmethyl)(4-fluoro-3-methylphenyl)amino)cyclohexyl)(methyl)amino)-5-methyl-6-oxo-5,6-dihydro-1,5-naphthyridine-2,7-dicarbonitrile] were 100 to 1000 nM and 100 to 1000 nM.
In the same order, the values of `Cn1c(=O)c(C#N)c(N(C)[C@H]2CC[C@@H](N(CC3CC3)c3cc4c(cn3)OCO4)CC2)c2nc(C#N)ccc21` [Example 213, cis-8-((-4-([1,3]dioxolo[4,5-c]pyridin-6-yl(cyclopropylmethyl)amino)cyclohexyl)(methyl)amino)-5-methyl-6-oxo-5,6-dihydro-1,5-naphthyridine-2,7-dicarbonitrile] are 10 to 100 nM and 100 to 1000 nM.
Taken in the same sequence, the figures for `CN1C(=O)CN([C@H]2CC[C@@H](N(CC3CC3)c3ccccc3)CC2)c2nc(C#N)ccc21` [Example 2C, cis-4-[4-[N-(Cyclopropylmethyl)anilino]cyclohexyl]-1-methyl-2-oxo-3H-pyrido[2,3-b]pyrazine-6-carbonitrile] were 100 to 1000 nM and ≥ 1000 nM.
Turning to `Cn1c(=O)cc(N(C)[C@H]2CC[C@@H](N(CC3COCCO3)c3ccc(F)c(OC(F)F)c3)CC2)c2nc(C#N)ccc21` (stereo partly drawn) [Example 188, cis-8-((-4-(((1,4-dioxan-2-yl)methyl)(3-(difluoromethoxy)-4-fluorophenyl)amino)cyclohexyl) (methyl)amino)-5-methyl-6-oxo-5,6-dihydro-1,5-naphthyridine-2-carbonitrile], the IC50 on DGKα and at DGKζ was 100 to 1000 nM throughout.
With `COc1cccc(N(CC2CC2)[C@H]2CC[C@H](N(C)c3c(C#N)c(=O)n(C)c4cccnc34)CC2)c1` [Example 13, trans-4-((4-((cyclopropylmethyl)(3-methoxyphenyl)amino)cyclohexyl)(methyl)amino)-1-methyl-2-oxo-1,2-dihydro-1,5-naphthyridine-3-carbonitrile], the IC50 on DGKα is 10 to 100 nM; at DGKζ it was ≥ 1000 nM.
